The target in the experiment is T1, human leukocyte elastase (Homo sapiens, UniProt P08246).
T1 sequence (P08246 30-267): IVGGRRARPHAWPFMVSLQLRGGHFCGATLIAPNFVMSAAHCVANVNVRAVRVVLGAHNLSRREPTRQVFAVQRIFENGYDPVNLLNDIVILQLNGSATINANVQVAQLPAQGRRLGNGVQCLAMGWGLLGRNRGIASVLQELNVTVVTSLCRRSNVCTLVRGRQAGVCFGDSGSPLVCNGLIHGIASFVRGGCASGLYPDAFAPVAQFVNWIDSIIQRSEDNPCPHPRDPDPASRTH
The experiment can be described thus: human leukocyte elastase (HLE) inhibitory activity, substrate MeOSuc-Ala-Ala-Pro-Val-pNA. Format: biochemical. The conditions noted are these: pH 7.8, 25° C., steady-state velocities. As for the experimental part: The test compound (inhibitor) is dissolved in DMSO in a vial to produce an inhibitor stock solution which has a concentration in the range of 200-1000 μM. The inhibitor stock solution is diluted (1:4, 1:16 and 1:64) into assay vials (vials 1, 2 and 3 respectively) containing 2.4 mL of buffer solution (50 mM N-[2-hydroxyethyl] piperazine-N'-[2-ethanesulfonic acid]/NaOH, 500 mM NaCl, pH 7.8 at 25° C.) and DMSO is added so that the total volume in each vial is 3.2 mL. 70 μL, 50 μL, 35 μL and 25 μL of inhibitor from assay vial 1 is placed into the first four wells of a 96-well microtiter plate and each well is made up to 90 μL total volume with the addition of a 25% DMSO/buffer solution. The inhibitor from assay vials 2 and 3 is processed in a similar manner and placed in wells 5-12 respectively to afford a total of 12 different inhibitor concentrations. Four wells (wells 13-16) containing 90 μL of the 25% DMSO/buffer solution but no inhibitor are also run simultaneously with the inhibited wells as a control. 150 μL of substrate solution (prepared by the addition of 500 μL of the human leukocyte elastase (HLE) substrate MeOSuc-Ala-Ala-Pro-Val-pNA (18.7 mM in DMSO) to 19.5 mL of buffer solution) is then added simultaneously into each of the 16 wells and the solution in each well was thoroughly mixed.
The 96-well microtiter plate is placed into a Microplate Reader #89815A spectrophotometer and 110 μL of the enzyme solution (prepared as follows: a mixture of 20 mL of buffer solution and 20 mg of bovine serum albumen is gently vortexed in a scintillation vial and 5 μL HLE stock solution (1 mg/mL dissolved in deionized water) is added) is added simultaneously to each of the 16 wells. Each of the solutions in the wells is throughly mixed and then the time-dependent absorbance data is collected at an absorbance of 410 nm until the assay is complete. It should be noted that although this assay method can be done manually, it is preferred to perform the assay robotically using a Hewlett Packard MicroAssay System Robot. the absorbance versus time data thus obtained affords curves the final slope of which is equal to the final steady-statevelocities (VF). Using the program ENZFITTER (Elsevier software), the progress curves for the four control assays ([I]=0 are fit by linear regression to yield the enzyme reaction velocity values in the absences of inhibitor (Vo) which are averaged to produce a single fixed value. The inhibition constant Ki (nM) is then obtained from a plot of [formula] which affords a linear plot wherein: [formula] and [S] is the concentration of the substrate and Km is the Michaelis constant.
Table I summarizes the results obtained from the testing of compounds of the invention for human leukocyte elastase inhibitory activity.
The Ki is a dissociation constant, usually derived from enzyme kinetics or from competition with a known ligand. In turn, `COc1cc(C(C)C)c2c(c1)S(=O)(=O)N(COc1cc(-c3ccccc3)nn1C)C2=O` [2 (b), 4-isopropyl-6-methoxy-2-(1-methyl-3-phenylpyrazol-5-yl-oxymethyl)-1,2-benzisothiazol-3(2H)-one 1,1-dioxide] showed a Ki of 0.47 nM.

Regarding `COc1cc(C(C)C)c2c(c1)S(=O)(=O)N(COc1cc(C)nn1-c1ccccc1)C2=O` [4 (b), 4-isopropyl-6-methoxy-2-(1-phenyl-3-methylpyrazol-5-yl-oxymethyl)-1,2-benzisothiazol-3(2H)-one 1,1-dioxide], the Ki came to 0.44 nM.

The molecule `COc1cc(C(C)C)c2c(c1)S(=O)(=O)N(COc1cc(-c3ccccc3)nn1-c1ccccc1)C2=O` [5 (b), 4-isopropyl-6-methoxy-2-(1,3-diphenylpyrazol-5-yl-oxymethyl)-1,2-benzisothiazol-3(2H)-one 1,1-dioxide] displayed a Ki of 0.92 nM.

Molecule `COc1cc(C(C)C)c2c(c1)S(=O)(=O)N(COc1ccnn1-c1ccccc1)C2=O` [6 (c), 4-isopropyl-6-methoxy-2-(1-phenylpyrazol-5-yl-oxymethyl)-1,2-benzisothiazol-3(2H)-one 1,1-dioxide] yielded a Ki of 0.145 nM. Against the preceding molecule, the Ki is about 6.3-fold lower.

`COc1cc(C(C)C)c2c(c1)S(=O)(=O)N(COc1cc(C(F)(F)F)nn1-c1ccc(Cl)cc1)C2=O` [8 (b), 4-isopropyl-6-methoxy-2-[1-(4-chlorophenyl)-3-trifluoromethylpyrazol-5-yl-oxymethyl]-1,2-benzisothiazol-3(2H)-one 1,1-dioxide] showed a Ki of 0.11 nM.

Regarding `COc1cc(C(C)C)c2c(c1)S(=O)(=O)N(COc1cc(C(F)(F)F)nn1-c1ccccn1)C2=O` [10 (b), 4-isopropyl-6-methoxy-2-[1-(2-pyridyl)-3-trifluoromethylpyrazol-5-yl-oxymethyl]-1,2-benzisothiazol-3(2H)-one 1,1-dioxide], the Ki was 0.024 nM.

Turning to `COc1cc(C(C)C)c2c(c1)S(=O)(=O)N(COc1cc(C(F)(F)F)nn1-c1ccc([N+](=O)[O-])cc1)C2=O` [11 (c), 4-isopropyl-6-methoxy-2-[1-(4-nitrophenyl)-3-trifluoromethylpyrazol-5-yl-oxymethyl)-1,2-benzisothiazol-3(2H)-one 1,1-dioxide], the Ki is 0.089 nM. Compared with the last molecule, the Ki is about 3.7-fold higher.

The molecule `COc1cc(C(C)C)c2c(c1)S(=O)(=O)N(COc1cc(-c3ccncc3)nn1-c1ccc(Cl)cc1)C2=O` [14 (c), 4-isopropyl-6-methoxy-2-[1-(4-chlorophenyl)-3-(4-pyridyl)pyrazol-5-yl-oxymethyl]-1,2-benzisothiazol-3(2H)-one 1,1-dioxide] returned a Ki of 0.19 nM.

`COc1ccc(-n2nc(C(F)(F)F)cc2OCN2C(=O)c3c(C(C)C)cc(OC)cc3S2(=O)=O)cc1` [15 (b), 4-isopropyl-6-methoxy-2-[1-(4-methoxyphenyl)-3-trifluoromethylpyrazol-5-yl-oxymethyl)-1,2-benzisothiazol-3(2H)-one 1,1-dioxide] gave a Ki of 0.13 nM.

`COc1cc(C(C)C)c2c(c1)S(=O)(=O)N(COc1c(Cl)c(C(F)(F)F)nn1-c1ccccc1)C2=O` [16 (b), 4-isopropyl-6-methoxy-2-(1-phenyl-3-trifluoromethyl-4-chloropyrazol-5-yl-oxymethyl)-1,2-benzisothiazol-3(2H)-one 1,1-dioxide] showed a Ki of 1.6 nM.

In turn, `CC(C)c1cc(OCCCC(=O)O)cc2c1C(=O)N(COc1cc(C(F)(F)F)nn1-c1ccccc1)S2(=O)=O` [17 (b), 4-isopropyl-6-[3-(carboxy)propoxy]-2-(1-phenyl-3-trifluoromethylpyrazol-5-yl-oxymethyl)-1,2-benzisothiazol-3(2H)-one 1,1-dioxide] gave a Ki of 0.036 nM.

Consider `CC(C)c1cc(OCC(C)(C)C(=O)O)cc2c1C(=O)N(COc1cc(C(F)(F)F)nn1-c1ccccc1)S2(=O)=O` [18 (b), 4-isopropyl-6-[2-(carboxy-2-methyl)propoxy]-2-(1-phenyl-3-trifluoromethylpyrazol-5-yl-oxymethyl)-1,2-benzisothiazol-3(2H)-one 1,1-dioxide], for which the Ki was 0.22 nM.

In turn, `COc1cc(C(C)C)c2c(c1)S(=O)(=O)N(COc1cc(-c3c(F)c(F)c(F)c(F)c3F)nn1-c1ccccc1)C2=O` [19 (c)] showed a Ki of 0.82 nM.

Molecule `COc1cc(C(C)C)c2c(c1)S(=O)(=O)N(COc1cc(C(F)(F)F)nn1-c1cccnc1)C2=O` [20 (c), 4-isopropyl-6-methoxy-2-[1-(3-lpyridyl)-3-(trifluoromethyl)pyrazol-5-yl-oxymethyl]-1,2-benzisothiazol-3(2H)-one 1,1-dioxide] registered a Ki of 0.037 nM.

In turn, `COc1cc(C(C)C)c2c(c1)S(=O)(=O)N(COc1cc(C(F)(F)F)nn1-c1ccncc1)C2=O` [22 (b), 4-isopropyl-6-methoxy-2-[1-(4-pyridyl)-3-trifluoromethylpyrazol-5-yl-oxymethyl]-1,2-benzisothiazol-3(2H)-one 1,1-dioxide] came in with a Ki of 0.18 nM.

`COc1cc(C(C)C)c2c(c1)S(=O)(=O)N(COc1cc(C(=O)NCCN3CCCC3)nn1-c1ccccc1)C2=O` [23 (b), 4-isopropyl-6-methoxy-2-[1-phenyl-3-(C(O)NH(CH2)2-1-pyrrolidinyl)pyrazol-5-yl-oxymethyl]-1,2-benzisothiazol-3(2H)-one 1,1-dioxide] returned a Ki of 0.065 nM. This Ki lies about 2.8-fold lower than the previous one.

For `COc1cc(C(C)C)c2c(c1)S(=O)(=O)N(COc1cc(Cl)nn1-c1ccccc1)C2=O` [24 (c), 4-isopropyl-6-methoxy-2-(1-phenyl-3-chloropyrazol-5-yl-oxymethyl)-1,2-benzisothiazol-3(2H)-one 1,1-dioxide], the affinity corresponds to a Ki of 0.026 nM. Against the preceding molecule, the Ki is about 2.5-fold lower.

With `COc1cc(C(C)C)c2c(c1)S(=O)(=O)N(COc1cc(C(F)(F)F)nn1-c1ccc3ccccc3n1)C2=O` [27 (b), 4-isopropyl-6-methoxy-2-[1-(2-quinolinyl)-3-(trifluoromethyl)pyrazol-5-yl-oxymethyl]-1,2-benzisothiazol-3(2H)-one 1,1-dioxide], the affinity corresponds to a Ki of 0.15 nM.

The molecule `COc1cc(C(C)C)c2c(c1)S(=O)(=O)N(COc1cc(C(F)(F)F)nn1-c1ccc(Cl)cn1)C2=O` [28 (c), 4-isopropyl-6-methoxy-2-[1-(5-chloro-2-pyridyl)-3-(trifluoromethyl)pyrazol-5-yl-oxymethyl]-1,2-benzisothiazol-3(2H)-one 1,1-dioxide] registered a Ki of 0.089 nM.

Molecule `CCN(CC)Cc1ccc(COc2cc(C(C)C)c3c(c2)S(=O)(=O)N(COc2cc(C(F)(F)F)nn2-c2ccccc2)C3=O)o1` [29 (b)] returned a Ki of 0.082 nM.

Molecule `COc1cc(C(C)C)c2c(c1)S(=O)(=O)N(COc1cc(C(F)(F)F)nn1-c1ccccc1Cl)C2=O` [30 (b), 4-isopropyl-6-methoxy-2-[1-(2-chlorophenyl)-3-trifluoromethylpyrazol-5-yl-oxymethyl]-1,2-benzisothiazol-3(2H)-one 1,1-dioxide] yielded a Ki of 0.07 nM.

With `CCN(CC)CCN(C)C(=O)c1cc(OCN2C(=O)c3c(C(C)C)cc(OC)cc3S2(=O)=O)n(-c2ccccc2)n1` [31 (b)], the Ki worked out at 0.143 nM.

For the molecule `COc1cc(C(C)C)c2c(c1)S(=O)(=O)N(COc1cc(C(F)(F)F)nn1-c1ccc(Cl)nn1)C2=O` [32 (c), 4-isopropyl-6-methoxy-2-[1-(3-chloropyridazin-6-yl)-3-trifluoromethylpyrazol-5-yl-oxymethyl]-1,2-benzisothiazol-3(2H)-one 1,1-dioxide], the affinity corresponds to a Ki of 0.055 nM.

`COc1cc(C(C)C)c2c(c1)S(=O)(=O)N(COc1cc(C(=O)OC(C)(C)C)nn1-c1ccccc1)C2=O` [33 (b), 4-isoorooyl-6-methoxy-2-[1-phenyl-3-(t-butoxycarbonyl)pyrazol-5-yl-oxymethyl]-1,2-benzisothiazol-23 (2H)-one 1,1-dioxide] came in with a Ki of 0.1 nM. This Ki lies about 1.8-fold higher than the previous one.

As to `COc1cc(C(C)C)c2c(c1)S(=O)(=O)N(COc1cc(C(F)(F)F)nn1-c1ncc(Cl)cc1C(F)(F)F)C2=O` [34 (b), 4-isopropyyl-6-methoxy-2-[1-(5-chloro-3-trifluoromethyl-2-pyridyl)-3-trifluoromethylpyrazol-5-yl-oxymethyl]-1,2-benzisothiazol-3(2H)-one 1,1-dioxide], the affinity, expressed as Ki, was 0.027 nM.

The record behind these values is patent publication US5750550A, “2-(pyrazol-5-yl-oxymethyl)-1,2-benzisothiazol-3 (2H)-One 1, 1-dioxides and compositions and method of use thereof” (Sanofi, priority 1995, dated 1998).
